Results as given in US12258344B2, “Azaaromatic amide derivatives for the treatment of cancer” (SHENZHEN FORWARD PHARMACEUTICALS CO., LTD., priority 2019, dated 2025).
Where two headings read alike, the source gives them in different places. One block for each compound: values may come before it.

Tests used:
Format in all cases: cell-based
BaF3 (EGFR/A763insFQEA) = BaF3 (EGFR/A763insFQEA) (Homo sapiens, UniProt P00533, INS763FQEA, cells depend on it); assay: Test 14: EGFR exon 20 inserted A763insFQEA cell proliferation test; conditions: 72 hours, Cell Titer-Glo, read-out: Test 14 IC50
Procedure: Test 14: EGFR Exon 20 Inserted A763insFQEA Cell Proliferation Test
(§1) The number of viable cells in the culture was measured according to the protocol described in Promega's Cell Titer-Glo Luminescent cell Viability Assay (Promega catalog number #G7570). 90 μl of cells (3,000 cells/well) were cultured in growth medium in a Corning black transparent bottom 96-well plate, and cultured in a 5% CO2 humidified incubator at 37° C. overnight. The compound serially diluted in 100% DMSO was added to the cells using a pipette, and the cells were incubated for another 72 hours. 100 μl of the mixed Cell Titer-Glo reagent was added to the cells in the 96-well culture plate to lyse the cells and mix gently. Subsequently, the […] was detected on the Envision microplate detector to obtain the data of each compound. Finally, the data was input into a suitable software package (such as Prism) for curve fitting analysis.

BaF3 (EGFR/V769insASV) = BaF3 (EGFR/V769insASV) (Homo sapiens, UniProt P00533, DUP767-769, cells depend on it); assay: Test 15: EGFR exon 20 inserted V769insASV cell proliferation test; conditions: 72 hours, Cell Titer-Glo, read-out: Test 15 IC50
Procedure: Test 15: EGFR Exon 20 Inserted V769insASV Cell Proliferation Test
as §1, with “(3000” for “(3,000”

BaF3 (EGFR/D770insNPG) = BaF3 (EGFR/D770insNPG) (Homo sapiens, UniProt P00533, cells depend on it, form not given); assay: Test 17: EGFR exon 20 inserted D770insNPG cell proliferation test; conditions: 72 hours, Cell Titer-Glo, read-out: Test 17 IC50
Procedure: Test 17: EGFR Exon 20 Inserted D770insNPG Cell Proliferation Test
as §1

BaF3 (EGFR/N771insH) = target: T1, BaF3 (EGFR/N771insH) (Homo sapiens, UniProt P00533, cells depend on it, form not given); assay: Test 16: EGFR exon 20 inserted N771insH cell proliferation test; conditions: BaF3 (EGFR/N771insH), 72 hours, Cell Titer-Glo, read-out: Test 16 IC50
T1 construct: Test 16 IC50 (nM); other: BaF3 (EGFR/N771insH), 72 hours, Cell Titer-Glo

BaF3 (EGFR/D770insSVD) [1] = target: T2, BaF3 (EGFR/D770insSVD) (Homo sapiens, UniProt P00533, DUP768-770, cells depend on it); assay: Test 13: EGFR exon 20 inserted D770insSVD cell proliferation test; conditions: BaF3 (EGFR/D770insSVD), 72 hours, Cell Titer-Glo, read-out: Test 13 IC50
T2 construct: Test 13 IC50 (nM); other: BaF3 (EGFR/D770insSVD), 72 hours, Cell Titer-Glo
Method in brief: (§2)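 BaF3 cells expressing EGFR D770insSVD, 3,000 cells/well, seeded overnight at 37° C, 5% CO2, then exposed to serially diluted compound for 72 h. Viable cells read by CellTiter-Glo luminescence; values from curve fitting.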

BaF3 (EGFR/S768I) = target: T3, BaF3 (EGFR/S768I) (Homo sapiens, UniProt P00533, cells depend on it, form not given); assay: Test 19: EGFR/S768I mutant cell line proliferation test; conditions: EGFR S768I and EGFR L861Q (tests 19-20), in words
T3 construct: other: EGFR S768I and EGFR L8
Procedure: Test 19: EGFR/S768I Mutant Cell Line Proliferation Test
as §1

BaF3 (HER2/G776insVC) = BaF3 (HER2/G776insVC) (Homo sapiens, UniProt P04626, cells depend on it, form not given); assay: Test 23: HER2 exon 20 inserted G776insVC cell proliferation test; conditions: read-out: test 23 IC50, 72 hours, Cell Titer-Glo
Procedure: Test 23: HER2 Exon 20 Inserted G776insVC Cell Proliferation Test
as §1

[2] = tested on: NCI-H1975 (EGFR L858R/T790M double mutant); assay: Test 1: EGFR L858R/T790M (EGFR double mutant) cell proliferation test; conditions: Homo sapiens; NCI-H1975 cells, 72 hours, Cell Titer-Glo
Procedure: Test 1: EGFR L858R/T790M (EGFR Double Mutant) Cell Proliferation Test
The human lung cell line NCI-H1975 (EGFR L858R/T790M double mutant) was obtained from the American Type Culture Collection. NCI-H1975 cells were cultured in RPMI1640 medium containing 10% fetal bovine serum and 2 mM glutamine. The cells were grown at 37° C. in a humidified incubator with 5% CO2.
as §1, with “(8,000” for “(3,000”

BaF3 (HER2-A775insYVMA) = BaF3 (HER2-A775insYVMA) (Homo sapiens, UniProt P04626, DUP772-775, cells depend on it); assay: Test 9: BaF3 (HER2-A775insYVMA) cell proliferation test; conditions: 72 hours, Cell Titer-Glo, read-out: Test 9 - IC50
Procedure: Test 9: BaF3 (HER2-A775insYVMA) Cell Proliferation Test
BaF3 (HER2-A775insYVMA) was cultured in RPMI1640 medium containing 10% fetal bovine serum and 2 mM glutamine. The cells were grown at 37° C. in a humidified incubator with 5% CO2.
as §1

BaF3 (HER2/A775insYVMA) [3] = target: T4, BaF3 (HER2/A775insYVMA) (Homo sapiens, UniProt P04626, cells depend on it, form not given); assay: Test 21: HER2 exon 20 inserted A775insYVMA cell proliferation test; conditions: read-out: test 21 IC50; BaF3 (HER2/A775insYVMA), 72 hours, Cell Titer-Glo
T4 construct: other: BaF3 (HER2/A775insYVMA), 72 hours, Cell Titer-Glo
Procedure: (§3) Test 21: HER2 Exon 20 Inserted A775insYVMA Cell Proliferation Test
as §1

BaF3 (HER2-G776insVC) = BaF3 (HER2-G776insVC) (Homo sapiens, UniProt P04626, cells depend on it, form not given); assay: Test 11: BaF3 (HER2-G776insVC) cell proliferation test; conditions: 72 hours, Cell Titer-Glo, read-out: Test 11 - IC50
Procedure: Test 11: BaF3 (HER2-G776insVC) Cell Proliferation Test
(§4) The engineered cell line BaF3 (HER2-G776insVC) was constructed by the inventor himself (for the method of cell line construction, see Jingrui Jiang et al., Cancer Res. 2005 Oct. 1; 65 (19): 8964-74; Jacqulyne P. Robichaux et al., Nat Med. 2018 May; 24 (5): 638-646). BaF3 (HER2-G776insVC) was cultured in RPMI1640 medium containing 10% fetal bovine serum and 2 mM glutamine. The cells were grown at 37° C. in a humidified incubator with 5% CO2.
as §1

BaF3 (HER2-P780insGSP) = BaF3 (HER2-P780insGSP) (Homo sapiens, UniProt P04626, DUP778-780, cells depend on it); assay: Test 10: BaF3 (HER2-P780insGSP) cell proliferation test; conditions: 72 hours, Cell Titer-Glo, read-out: Test 10 - IC50
Procedure: Test 10: BaF3 (HER2-P780insGSP) Cell Proliferation Test
BaF3 (HER2-P780insGSP) was cultured in RPMI1640 medium containing 10% fetal bovine serum and 2 mM glutamine. The cells were grown at 37° C. in a humidified incubator with 5% CO2.
as §1

BaF3 (HER2/P780insGSP) = BaF3 (HER2/P780insGSP) (Homo sapiens, UniProt P04626, cells depend on it, form not given); assay: Test 22: HER2 exon 20 inserted P780insGSP cell proliferation test; conditions: 72 hours, Cell Titer-Glo, read-out: test 22 IC50
Procedure: Test 22: HER2 Exon 20 Inserted P780insGSP Cell Proliferation Test
as §4, with “(HER2/P780insGSP)” for “(HER2-G776insVC)”, “RPMI 1640” for “RPMI1640”, “glutamine, and the” for “glutamine. The”
as §1

BaF3 (HER2/A775insYVMA) [4] = target: T5, BaF3 (HER2/A775insYVMA) (Homo sapiens, UniProt P04626, cells depend on it, form not given); assay: Test 21: HER2 exon 20 inserted A775insYVMA cell proliferation test; conditions: tests 21-23, in words
T5 construct: other: tests 21-23, in words; other: HER2 exon 20 insertion mutation cells, tests 21-23
Procedure: as §3, §1

BaF3 (EGFR/D770insSVD) [5] = target: T6, BaF3 (EGFR/D770insSVD) (Homo sapiens, UniProt P00533, cells depend on it, form not given); assay: Test 13: EGFR exon 20 inserted D770insSVD cell proliferation test; conditions: A763insFQEA, V769insASV, D770insSVD (tests 13-15), in words
T6 construct: other: A763insFQEA, V769ins
Method in brief: as §2

GI50 (BaF3 (EGFR/A763insFQEA); hydrochloride): 0.0157 µM | GI50 (BaF3 (EGFR/V769insASV); hydrochloride): 0.0269 µM | GI50 (BaF3 (EGFR/D770insNPG); hydrochloride): 0.00473 µM | GI50 (BaF3 (EGFR/N771insH); hydrochloride): 0.0102 µM | GI50 (BaF3 (EGFR/D770insSVD) [1]; hydrochloride): 0.0545 µM
Compound: C=CC(=O)Nc1cc(Nc2nccc(-c3cn(C)c4ccccc34)n2)c(OCC(F)(F)F)nc1N(C)CCN(C)C.Cl [Compound 32, N-(2-((2-(dimethylamino)ethyl(methyl)amine)-5-((4-(1-methyl-1H-indol-3-yl)pyrimidine-2-yl)amine)-6-(2,2,2-trifluoroethoxy)pyridin-3-yl)acrylamide hydrochloride]

GI50 (BaF3 (EGFR/A763insFQEA)): 0.015 µM | GI50 (BaF3 (EGFR/V769insASV)): 0.0257 µM | GI50 (BaF3 (EGFR/D770insNPG)): 0.00587 µM | GI50 (BaF3 (EGFR/N771insH)): 0.0101 µM | GI50 (BaF3 (EGFR/D770insSVD) [1]): 0.0495 µM
Compound: C=CC(=O)Nc1cc(Nc2nccc(-c3cn(C)c4ccccc34)n2)c(OCC(F)(F)F)nc1N(C)CCN(C)C [Compound 33]
activity compared with Osimertinib (AZD9291) against EGFR S768I and EGFR L861Q mutations (BaF3 (EGFR/S768I)): superior activity over Osimertinib (AZD9291)

Second part, the compound before the results:

Compound: C=CC(=O)Nc1cc(Nc2nccc(-c3cn(C)c4ccccc34)n2)c(OCC(F)(F)F)nc1N(C)CCN(C)C.CS(=O)(=O)O [Compound 31, N-(2-((2-(dimethylamino)ethyl(methyl)amine)-5-((4-(1-methyl-1H-indol-3-yl)pyrimidine-2-yl)amino)-6-(2,2,2-trifluoroethoxy)pyridin-3-yl)acrylamide methanesulfonate]
GI50 (BaF3 (EGFR/A763insFQEA)): 0.013 µM | GI50 (BaF3 (EGFR/V769insASV)): 0.0284 µM | GI50 (BaF3 (EGFR/D770insNPG)): 0.00458 µM | GI50 (BaF3 (EGFR/N771insH)): 0.00943 µM | GI50 (BaF3 (EGFR/D770insSVD) [1]): 0.045 µM

Compound: C=CC(=O)Nc1cc(Nc2nccc(-c3cn(C)c4ccccc34)n2)c(OC)cc1N(C)CCN(C)C [Osimertinib (AZD9291), Osimertinib, reference compound]
GI50 (BaF3 (HER2/G776insVC)): 0.0612 µM | IC50 [2]: […] | GI50 (BaF3 (HER2-A775insYVMA)): 0.0612 µM | GI50 (BaF3 (HER2/A775insYVMA) [3]): 0.0322 µM | GI50 (BaF3 (HER2-G776insVC)): 0.0215 µM | GI50 (BaF3 (HER2-P780insGSP)): 0.0322 µM | GI50 (BaF3 (HER2/P780insGSP)): 0.0215 µM

Compound: (R)—N-(5-((4-(1H-pyrrole[3,2-c]pyridin-1-yl)-1,3,5-triazin-2-yl)amino)-2-(2-((dimethylamino)methyl)azetidine-1-yl)-4-methoxyphenyl)acrylamide [Example 1]
cell activity compared with Osimertinib (AZD9291) against HER2 exon 20 insertion mutation (BaF3 (HER2/A775insYVMA) [4]): superior cell activity over Osimertinib (AZD9291) | cell activity compared with Osimertinib (AZD9291) against EGFR exon 20 insertion mutations (BaF3 (EGFR/D770insSVD) [5]): significant superior cell activity over Osimertinib (AZD9291)
